# Biological target: human OX2R (Homo sapiens (Human), UniProt O43614)
# Assay: IPOne (IP-One, Cisbio) orexin receptor agonist assay in CHO cells expressing human OX2R
# Conditions: not given
# Chain of human OX2R (O43614 whole entry): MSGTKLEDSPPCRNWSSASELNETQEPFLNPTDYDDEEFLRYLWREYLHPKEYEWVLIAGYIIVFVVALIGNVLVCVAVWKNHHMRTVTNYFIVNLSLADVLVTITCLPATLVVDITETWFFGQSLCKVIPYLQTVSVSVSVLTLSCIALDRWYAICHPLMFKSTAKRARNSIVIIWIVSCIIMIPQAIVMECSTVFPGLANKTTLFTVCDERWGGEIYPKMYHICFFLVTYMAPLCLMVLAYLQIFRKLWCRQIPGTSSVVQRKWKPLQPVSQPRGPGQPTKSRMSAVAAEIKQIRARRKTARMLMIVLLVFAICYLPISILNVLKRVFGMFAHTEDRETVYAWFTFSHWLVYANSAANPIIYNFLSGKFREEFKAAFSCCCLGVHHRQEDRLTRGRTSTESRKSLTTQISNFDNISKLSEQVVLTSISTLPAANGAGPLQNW
row,Structure (SMILES),IC50
1,"CCNC(=O)N1[C@H](C)C[C@H](NS(C)(=O)=O)[C@@H]1COC1CCC(C(C)C)CC1 (stereo partly drawn) [Example 1, (2R,3S,5R)—N-ethyl-2-(((4-isopropylcyclohexyl)oxy)methyl)-5-methyl-3-(methylsulfonamido)-pyrrolidine-1-carboxamide]",15.2 nM
2,"CCOC(=O)N1[C@H](C)C[C@H](NS(C)(=O)=O)[C@@H]1COC1CCC(C(C)C)CC1 (stereo partly drawn) [Example 7, ethyl (2R,3S,5R)-2-(((4-isopropylcyclohexyl)oxy)meth-yl)-5-methyl-3-(methylsulfonamido)pyrrolidine-1-carboxylate]",45.5 nM

# The remaining lines, values ahead:
row,IC50,Structure (SMILES)
1,224 nM,"COC(=O)N1[C@@H](CO[C@H]2CC[C@@H](c3ccccc3)CC2)[C@@H](NS(C)(=O)=O)CC12CC2 (relative stereo) [Example 41, methyl (CIS)-6-(methylsulfonamido)-5-((((CIS)-4-phenylcyclohexyl)oxy)methyl)-4-azaspiro[2.4]heptane-4-carboxylate]"
2,316 nM,"CCC1(CC)C[C@@H](NS(C)(=O)=O)[C@@H](CO[C@H]2CC[C@@H](c3ccccc3)CC2)N1C(=O)OC (relative stereo) [Example 42, methyl (CIS)-2,2-diethyl-4-(methylsulfonamido)-5-((((CIS)-4-phenylcyclohexyl)oxy)methyl)-pyrrolidine-1-carboxylate]"

# Same assay, conditions: CHO, hOX2R_IP; percentage of mean max effect of a reference compound at 1 uM (100% activity vs Orexin A)
row,Structure (SMILES),Emax
1,"CCNC(=O)N1[C@H](C)C[C@H](NS(C)(=O)=O)[C@@H]1COC1CCC(C(C)C)CC1 (stereo partly drawn) [Example 1, (2R,3S,5R)—N-ethyl-2-(((4-isopropylcyclohexyl)oxy)methyl)-5-methyl-3-(methylsulfonamido)-pyrrolidine-1-carboxamide]",101%
2,"CCNC(=O)N1[C@H](C)C[C@H](NS(C)(=O)=O)[C@@H]1COC1CCC(C(F)(F)F)CC1 (stereo partly drawn) [Example 2, (2R,3S,5R)—N-ethyl-5-methyl-3-(methylsulfonamido)-2-(((4-(trifluoromethyl)-cyclohexyl)oxy)methyl)pyrrolidine-1-carboxamide]",100%
3,"COC(=O)N1[C@H](C)C[C@H](NS(C)(=O)=O)[C@@H]1COC1CCC(C(C)C)CC1 (stereo partly drawn) [Example 3, methyl (2R,3S,5R)-2-(((4-isopropylcyclohexyl)oxy)methyl)-5-methyl-3-(methylsulfonamido)pyrrolidine-1-carboxylate]",98%
4,"CC(C)OC(=O)N1[C@H](C)C[C@H](NS(C)(=O)=O)[C@@H]1COC1CCC(C(C)C)CC1 (stereo partly drawn) [Example 5, isopropyl (2R,3S,5R)-2-(((4-isopropylcyclohexyl)oxy)meth-yl)-5-methyl-3-(methylsulfonamido)pyrrolidine-1-carboxylate]",101%
5,"CCOC(=O)N1[C@H](C)C[C@H](NS(C)(=O)=O)[C@@H]1COC1CCC(C(C)C)CC1 (stereo partly drawn) [Example 7, ethyl (2R,3S,5R)-2-(((4-isopropylcyclohexyl)oxy)meth-yl)-5-methyl-3-(methylsulfonamido)pyrrolidine-1-carboxylate]",100%
6,"CCOC(=O)N1[C@H](C)C[C@H](NS(=O)(=O)N(C)C)[C@@H]1COC1CCC(C(C)C)CC1 (stereo partly drawn) [Example 8, ethyl (2R,3S,5R)-3-((N,N-dimethylsulfamoyl)amino)-2-(((4-isopropylcyclohexyl)oxy)meth-yl)-5-methylpyrrolidine-1-carboxylate]",101%
7,"CC(C)C1CCC(OC[C@H]2[C@@H](NS(C)(=O)=O)C[C@@H](C)N2C(=O)OCC(F)F)CC1 (stereo partly drawn) [Example 9, 2,2-difluoroethyl (2R,3S,5R)-2-(((4-isopropylcyclohexyl)oxy)meth-yl)-5-methyl-3-(methylsulfonamido)pyrrolidine-1-carboxylate]",101%
8,"CC(C)C1CCC(OC[C@H]2[C@@H](NS(C)(=O)=O)C[C@@H](C)N2C(=O)OCCF)CC1 (stereo partly drawn) [Example 10, 2-fluoroethyl (2R,3S,5R)-2-(((4-isopropylcyclohexyl)oxy)meth-yl)-5-methyl-3-(methylsulfonamido)pyrrolidine-1-carboxylate]",99%
9,"COC(=O)N1[C@H](C)C[C@H](NS(=O)(=O)N(C)C)[C@@H]1COC1CCC(C(F)(F)F)CC1 (stereo partly drawn) [Example 11, methyl (2R,3S,5R)-3-((N,N-dimethylsulfamoyl)amino)-5-methyl-2-(((4-(trifluoromethyl)cyclohexyl)oxy)methyl)pyrrolidine-1-carboxylate]",99%
10,"COC(=O)N1[C@H](C)C[C@H](NS(C)(=O)=O)[C@@H]1COC1CCC(CC(F)(F)F)CC1 (stereo partly drawn) [Example 12, methyl (2R,3S,5R)-5-methyl-3-(methylsulfonamido)-2-(((4-(2,2,2-trifluoroethyl)cyclohexyl)oxy)methyl)pyrrolidine-1-carboxylate]",99%
11,"CC(C)C1CCC(OC[C@H]2[C@@H](NS(=O)(=O)N(C)C)C[C@@H](C)N2C(=O)OCC(F)F)CC1 (stereo partly drawn) [Example 14, 2,2-difluoroethyl (2R,3S,5R)-3-((N,N-dimethylsulfamoyl)amino)-2-(((4-isopropylcyclohexyl)oxy)meth-yl)-5-methylpyrrolidine-1-carboxylate]",100%

# Further lines, results first:
row,Emax,Structure (SMILES)
1,103%,"CC[C@@H]1C[C@H](NS(C)(=O)=O)[C@H](CO[C@H]2CC[C@@H](c3ccccc3)CC2)N1C(=O)OC (racemic) [Example 43, methyl (2R,3S,5R)-5-ethyl-3-(methylsulfonamido)-2-((((CIS)-4-phenylcyclohexyl)oxy)methyl)-pyrrolidine-1-carboxylate]"
2,99%,"COC(=O)N1[C@@H](CO[C@H]2CC[C@@H](c3ccccc3)CC2)[C@@H](NS(C)(=O)=O)CC12CC2 (relative stereo) [Example 41, methyl (CIS)-6-(methylsulfonamido)-5-((((CIS)-4-phenylcyclohexyl)oxy)methyl)-4-azaspiro[2.4]heptane-4-carboxylate]"
3,100%,"CCC1(CC)C[C@@H](NS(C)(=O)=O)[C@@H](CO[C@H]2CC[C@@H](c3ccccc3)CC2)N1C(=O)OC (relative stereo) [Example 42, methyl (CIS)-2,2-diethyl-4-(methylsulfonamido)-5-((((CIS)-4-phenylcyclohexyl)oxy)methyl)-pyrrolidine-1-carboxylate]"
4,102%,"COC(=O)N1[C@H](C)C[C@H](NS(C)(=O)=O)[C@@H]1CO[C@H]1CC[C@@H](c2cc(F)ccc2F)CC1 [Example 20, methyl (2R,3S,5R)-2-((((1r,4R)-4-(2,5-difluorophenyl)cyclo-hexyl)oxy)methyl)-5-methyl-3-(methylsulfona-mido)pyrrolidine-1-carboxylate]"
5,101%,"COC(=O)N1[C@H](C)C[C@H](NS(=O)(=O)N(C)C)[C@@H]1CO[C@H]1CC[C@@H](c2cc(F)ccc2F)CC1 [Example 21, methyl (2R,3S,5R)-2-((((1R,4R)-4-(2,5-difluorophenyl)cyclohexyl)oxy)methyl)-3-((N,N-dimethylsulfa-moyl)amino)-5-methylpyrrolidine-1-carboxylate]"
6,100%,"C[C@@H]1C[C@H](NS(=O)(=O)N(C)C)[C@H](CO[C@H]2CC[C@@H](c3cc(F)ccc3F)CC2)N1C(=O)OCC(F)F [Example 22, 2,2-difluoroethyl (2R,3S,5R)-2-((((1r,4R)-4-(2,5-difluorophenyl)-cyclohexyl)oxy)methyl)-3-((N,N-dimethylsulfamoyl)amino)-5-methylpyrrolidine-1-carboxylate]"
7,97%,"COC(=O)N1[C@H](C)C[C@H](NS(=O)(=O)N(C)C)[C@@H]1CO[C@H]1CC[C@@H](c2ccccc2F)CC1 [Example 23, methyl (2R,3S,5R)-3-((N,N-dimethylsulfamoyl)amino)-2-((((1s,4S)-4-(2-fluorophenyl)cyclohexyl)oxy)methyl-5-methylpyrrolidine-1-carboxylate]"
8,98%,"COC(=O)N1[C@H](C)C[C@H](NS(=O)(=O)CF)[C@@H]1CO[C@H]1CC[C@@H](c2cccc(F)c2)CC1 [Example 26, methyl (2R,3S,5R)-3-((fluoromethyl)sulfonamido)-2-((((1s,4S)-4-(3-fluorophenyl)cyclohexyl)oxy)methyl)-5-methylpyrrolidine-1-carboxylate]"
9,100%,"COC(=O)N1[C@H](C)C[C@H](NS(C)(=O)=O)[C@@H]1CO[C@H]1CC[C@@H](c2ccccc2C(F)(F)F)CC1 [Example 27, methyl (2R,3S,5R)-5-methyl-3-(methylsulfonamido)-2-((((1r,4R)-4-(2-(trifluorometh-yl)phenyl)cyclohexyl)oxy)methyl)pyrrolidine-1-carboxylate]"

# Same assay, conditions: hOX2R_IP; percentage of mean max effect of a reference compound at 1 uM (100% activity vs Orexin A)
row,Structure (SMILES),Emax (%)
1,"COC(=O)N1[C@H](C)C[C@H](NS(C)(=O)=O)[C@@H]1CO[C@H]1CC[C@@H](C(C)C)CC1 [Example 4, methyl (2R,3S,5R)-2-((((1s,4S)-4-isopropylcyclohexyl)oxy)methyl)-5-methyl-3-(methylsulfonamido)pyrrolidine-1-carboxylate]",102%
2,"CNS(=O)(=O)N[C@H]1C[C@@H](C)N(C(=O)OC(C)C)[C@H]1COC1CCC(C(C)C)CC1 (stereo partly drawn) [Example 6, isopropyl (2R,3S,5R)-2-(((4-isopropylcyclohexyl)oxy)meth-yl)-5-methyl-3-((N-methylsulfamoyl)amino) pyrrolidine-1-carboxylate]",100%
3,"CNS(=O)(=O)N[C@H]1C[C@@H](C)N(C(=O)OCC(F)F)[C@H]1COC1CCC(C(C)C)CC1 (stereo partly drawn) [Example 13, 2,2-difluoroethyl (2R,3S,5R)-2-(((4-isopropylcyclohexyl)oxy)meth-yl)-5-methyl-3-((N-methylsulfamoyl)amino)pyrro-lidine-1-carboxylate]",101%
4,"COC(=O)N1[C@H](C)C[C@H](NS(C)(=O)=O)[C@@H]1CO[C@H]1CC[C@@H](c2ccccc2)CC1 [Example 15, methyl (2R,3S,5R)-5-methyl-3-(methylsulfonamido)-2-((((1s,4S)-4-phenylcyclohexyl)oxy)-methyl)pyrrolidine-1-carboxylate]",101%
5,"CNS(=O)(=O)N[C@H]1C[C@@H](C)N(C(=O)OCC(F)F)[C@H]1CO[C@H]1CC[C@@H](c2ccccc2)CC1 [Example 16, 2,2-difluoroethyl (2R,3S,5R)-5-methyl-3-((N-methylsulfamoyl)amino)-2-((((1s,4S)-4-phenylcyclohexyl)oxy)methyl)pyrrolidine-1-carboxylate]",101%
6,"C[C@@H]1C[C@H](NS(=O)(=O)N(C)C)[C@H](CO[C@H]2CC[C@@H](c3ccccc3)CC2)N1C(=O)OCC(F)F [Example 17, 2,2-difluoroethyl (2R,3S,5R)-3-((N,N-dimethylsulfamoyl)amino)-5-methyl-2-((((1s,4S)-4-phenylcyclohexyl)oxy)methyl)pyrrolidine-1-carboxylate]",102%
7,"COC(=O)N1[C@H](C)C[C@H](NS(=O)(=O)N(C)C)[C@@H]1CO[C@H]1CC[C@@H](c2ccccc2)CC1 [Example 19, methyl (2R,3S,5R)-3-((N,N-dimethylsulfamoyl)amino)-5-methyl-2-((((1s,4S)-4-phenylcyclohexyl)-oxy)methyl)pyrrolidine-1-carboxylate]",100%

# Other lines, results leading:
row,Emax (%),Structure (SMILES)
1,102%,"C=C[C@@H]1C[C@H](NS(C)(=O)=O)[C@H](CO[C@H]2CC[C@@H](c3ccccc3)CC2)N1C(=O)OC (relative stereo) [Example 48, methyl (CIS)-3-(methylsulfonamido)-2-((((CIS)-4-phenylcyclohexyl)oxy)methyl)-5-vinylpyrrolidine-1-carboxylate]"
2,102%,"COC(=O)N1[C@H](C)C[C@H](NS(=O)(=O)CF)[C@@H]1CO[C@H]1CC[C@@H](c2cccc(F)c2)CC1 [Example 26, methyl (2R,3S,5R)-3-((fluoromethyl)sulfonamido)-2-((((1s,4S)-4-(3-fluorophenyl)cyclohexyl)oxy)methyl)-5-methylpyrrolidine-1-carboxylate]"
